Earlier results on one molecule are cited in patent US20060024247A1, “Oral care formulations comprising highly bioavailable Coenzyme Q-10 cyclodextrin complex” (BioActives, LLC, priority 2004, published 2006).

Each structure is given as a SMILES string.

Take `COC1=C(OC)C(=O)C(C/C=C(\C)CC/C=C(\C)CC/C=C(\C)CC/C=C(\C)CC/C=C(\C)CC/C=C(\C)CC/C=C(\C)CC/C=C(\C)CC/C=C(\C)CCC=C(C)C)=C(C)C1=O` [CoQ-10, Coenzyme Q-10]: the bioavailability result is “very poor” and the solubility in water result was “practically insoluble in water”.
